Measured values from patent US6153604A, “Therapeutic substituted guanidines” (Cambridge NeuroScience, Inc., priority 1995, dated 2000).
Where a name gives a salt, the structure may show the parent alone.

Legend:
[1] = system: NMDA-induced excitotoxic damage to the central nervous system; assay: In vivo assay for protection against NMDA-induced excitotoxic damage to the central nervous system; parameters: species or system rat (Day 7 neonatal); conditions: Rattus norvegicus, ip, 120 h, intraperitoneal; for inhibition in vivo at 60 µmol/kg: dose 60 μmol/kg; for ED80: 15 minutes after intrastriatal NMDA, neonatal rats, read-out: ED80 (dose that provides 80% of the maximum protection)
Method: In vivo assay for protection against NMDA-induced excitotoxic damage to the central nervous system.
The in vivo potency of compounds of the present invention is exemplified by data summarized in Table II and obtained pursuant to the following protocol. Day 7 neonatal rats were anesthetized with metophane inhalation anesthetic for 4-6 minutes, inserted into a stereotaxic apparatus and injected intrastriatally with 0.5 μl of 50 mM NMDA (N-methyl-D-aspartate). 15 minutes after the NMDA injection, the rat pups were injected intraperitoneally with 10, 30 or 60 μmol/kg of the NMDA antagonist of the structure specified in Table II Animals were returned to their mother and watched for signs of distress (e.g., respiratory depression). After five days, the animals were anesthetized with CO2 and then decapitated; their brains were removed and weighed to determine the degree of neuroprotection. Because NMDA injection results in a retardation of brain growth (including necrosis), effects can be measured gravimetrically in terms of the weights of injected and non-injected hemispheres. Two groups of rat pups were used at each of three doses of a compound to generate a neuroprotection dose-response curve. The chemical structure of each of the tested compounds is specified below with the general formula of the compounds shown at the top of Table II with particular substituent groups specified within that Table. Table II discloses 1) the ED80 for each tested compound, i.e., the dose of a compound that provides 80% of the maximum protection against damage to the central nervous system; and 2) the percent (%) maximum protection against damage to the central nervous system provided by the indicated dose expressed as μmol per kilogram bodyweight of the test subject.

[2] = target: PCP receptor; assay: PCP receptor radioligand binding assay ([3H]MK-801, rat brain membranes); conditions: read-out: [3H-MK801] IC50; displacement of [3H]MK-801, rat brain membranes
[3] = target: sigma receptor; assay: Sigma receptor binding assay ([3H]DTG, guinea pig brain membrane homogenates); conditions: displacement of [3H]DTG, guinea pig brain membranes
Method: Sigma Receptor Binding Assay
Briefly, frozen whole guinea-pig brains (Biotrol, Indianapolis, Ind.) were homogenized in 10 volumes (w/v) of ice-cold 320 mM sucrose using a Brinkman polytron. The homogenate was centrifuged at 1,000×g for 20 minutes at 4° C. The supernatant was centrifuged at 20,000×g for 20 minutes at 4° C. The resulting pellet was resuspended in 10 initial volumes of 50 mM Tris/HCl buffer at pH 7.4 and centrifuged at 20,000×g for 20 minutes at 4° C. The resulting pellet was resuspended in 5 initial volumes ice-cold 50 mM Tris/HCl (pH 7.4), and the final volume was adjusted to yield a protein concentration of 3 mg/ml. Aliquots of 20-ml were stored at -70° C. until used, with no detectable loss of binding.
The protein concentration in the 1-ml final incubation volume was 800 μg/ml, corresponding to 32 mg of brain tissue (original wet weight) and to a tissue concentration within the linear range for specific binding. […] Incubations were terminated after 90 minutes at room temperature by addition of 4 ml of ice-cold 50 mM Tris/HCl (pH 7.4) and rapid filtration of the membrane suspension through Whatman GF/B glass-fiber filters under vacuum, using a 48-well cell harvester (Brandel). The filters were washed 2 times with 4 ml of 50 mM Tris/HCl (pH 7.4). […] IC50 values were determined by non-linear regression analysis.

[4] = read-out: % maximum protection per dose

SMILES	inhibition in vivo at 60 µmol/kg [1, 4] [%]	ED80 [1] [µmol/kg]	IC50 [2] [nM]	IC50 [3] [nM]	inhibition in vivo at 30 µmol/kg ([1]; dose 30 μmol/kg, read-out: % maximum protection per dose) [%]
Cc1ccc(Cl)c(NC(=N)Nc2cccc3ccccc23)c1 [Cmpd. No. 10 (Table II), N-(1-Naphthyl)-N'(2-chloro-5-methylphenyl)guanidine hydrochloride]	96.4	45.8			
CSc1ccc(Cl)c(NC(=N)Nc2cccc3ccccc23)c1 [Cmpd. No. 9 (Table II), N-(1-Naphthyl)-N'-(2-chloro-5-thiomethylphenyl)guanidine hydrochloride]	92.7	10.8			
CN(C(=N)Nc1cccc2ccccc12)c1cccc(Cl)c1 [Compd. No. 52 (Table I)]			107	2980	
CCc1cccc(NC(=N)Nc2cccc(CC)c2)c1 [Compd. No. 9 (Table I)]			168	8	
CCc1cccc(N(C)C(=N)Nc2cccc(Br)c2)c1 [Compd. No. 19 (Table I)]			105	40	
CCc1cccc(NC(=N)Nc2cc(C(F)(F)F)ccc2F)c1 [Compound 5]			98.9	14.8	
CN(C(=N)Nc1cccc2ccccc12)c1cc(Cl)ccc1Cl [Compd. No. 50 (Table I), N-(1-Naphthyl)-N'(2,5-dichlorophenyl)-N'-methylguanidine hydrochloride]			62	1320	
CCc1ccc(Cl)c(NC(=N)Nc2cc(C)ccc2Cl)c1 [Compd. No. 29 (Table I)]			54.7	36.1	
CCc1cccc(N(C)C(=N)Nc2cc(C(F)(F)F)ccc2F)c1 [Compd. No. 14 (Table I), N-(3-Ethylphenyl)-N-methyl-N'-(2-fluoro-5-trifluoromethylphenyl)guanidine hydrochloride]			252	85	
Cc1ccc(C)c(N(C)C(=N)Nc2cccc3ccccc23)c1 [Cmpd. No. 7 (Table II), N-(1-Naphthyl)-N'-(2,5-dimethylphenyl)-N'-methylguanidine hydrochloride]		22.5			86
CCc1cccc(N(C)C(=N)Nc2cc(Br)ccc2Br)c1 [Compd. No. 11 (Table I), N-(3-ethylphenyl)-N-methyl-N'-(2,5-dibromophenyl)guanidine hydrochloride]			47.6	40.2	
CCc1cccc(N(C)C(=N)Nc2cc(C(F)(F)F)ccc2Br)c1 [Compd. No. 13 (Table I), N-(3-Ethylphenyl)-N-methyl-N'-(2-bromo-5-trifluoromethylphenyl)guanidine hydrochloride]			102	208	
N=C(Nc1cc(C(F)(F)F)ccc1Cl)Nc1cccc2ccccc12 [Compd. No. 40 (Table I), N-(1-Naphthyl)-N'-(2-chloro-5-trifluoromethylphenyl)guanidine hydrochloride]			38.6	52.5	
N=C(Nc1cc(C(F)(F)F)ccc1F)Nc1cccc2ccccc12 [Cmpd. No. 8 (Table II), N-(1-Naphthyl)-N'-(2-fluoro-5-trifluoromethylphenyl)guanidine hydrochloride]	96	28.8			
N=C(Nc1cc(C(F)(F)F)ccc1F)Nc1cccc2ccccc12 [Compd. No. 39 (Table I), N-(1-Naphthyl)-N'-(2-fluoro-5-trifluoromethylphenyl)guanidine hydrochloride]			38.4	79.4	
CCc1ccc(Cl)c(N(C)C(=N)Nc2cccc3ccccc23)c1 [Cmpd. No. 5 (Table II), N-(1-Naphthyl)-N'-(2-chloro-5-ethylphenyl)-N'-methylguanidine hydrochloride]	92.2	22.3			
CCc1cccc(N(C)C(=N)Nc2cc(Cl)ccc2Cl)c1 [Cmpd. No. 1 (Table II), N-(3-ethylphenyl)-N-methyl-N'-(2,5-dichlorophenyl)guanidine hydrochloride]	88.8	36.4			

SMILES	inhibition in vivo at 60 µmol/kg [1, 4] [%]	ED80 [1] [µmol/kg]	IC50 [2] [nM]	IC50 [3] [nM]	inhibition in vivo at 30 µmol/kg ([1]; dose 30 μmol/kg, read-out: % maximum protection per dose) [%]
Cc1cccc(NC(=N)Nc2cccc3ccccc23)c1 [Compd. No. 38 (Table I)]			192	75	
Cc1ccc(Cl)c(N(C)C(=N)Nc2cccc3ccccc23)c1 [Compd. No. 55 (Table I), N-(1-Naphthyl)-N'-(2-chloro-5-methylphenyl)-N'-methylguanidine hydrochloride]			41	2420	
CCc1ccc(Br)c(NC(=N)N(C)c2cccc(C(F)(F)F)c2)c1 [Compd. No. 70 (Table I), N-(3-Trifluoromethylphenyl)-N-methyl-N'-(2-bromo-5-ethylphenyl)guanidine hydrochloride]			20.4	166	
CCc1cccc(NC(=N)Nc2cccc3ccccc23)c1 [Compd. No. 45 (Table I)]			39	53.8	
CSc1ccc(C(F)(F)F)cc1NC(=N)Nc1cccc2ccccc12 [Compd. No. 42 (Table I), N-(1-Naphthyl)-N'-(2-thiomethyl-5-trifluoromethylphenyl)guanidine hydrochloride]			170	418	
CCc1cccc(N(C)C(=N)Nc2cc(Br)ccc2Br)c1 [Cmpd. No. 2 (Table II), N-(3-ethylphenyl)-N-methyl-N'-(2,5-dibromophenyl)guanidine hydrochloride]	93.8	13.4			
CSc1ccc(Cl)c(NC(=N)N(C)c2cccc3cccnc23)c1 [Compound 79]			22.3	542	
CCc1cccc(N(C)C(=N)Nc2cc(Cl)ccc2Cl)c1 [Compd. No. 10 (Table I), N-(3-ethylphenyl)-N-methyl-N'-(2,5-dichlorophenyl)guanidine hydrochloride]			84.6	28.5	
CCc1cccc(NC(=N)Nc2cc(C)ccc2Cl)c1 [Compd. No. 7 (Table I), N-(3-Ethylphenyl)-N'-(2-chloro-5-methylphenyl)guanidine hydrochloride]			100	30.6	
CSc1ccc(Br)c(NC(=N)N(C)c2cccc(C(F)(F)F)c2)c1 [Compd. No. 69 (Table I), N-(3-Trifluoromethylphenyl)-N-methyl-N'-(2-bromo-5-methylthiophenyl)guanidine hydrochloride]			5.55	631	
CSc1cccc(NC(=N)Nc2cccc3ccccc23)c1 [Compd. No. 47 (Table I)]			124	27	
N=C(Nc1cc(Cl)ccc1Cl)Nc1cccc2ccccc12 [Compd. No. 31 (Table I), N-(1-naphthyl)-N'-(2,5-dichlorophenyl)guanidine]			41	25	
CCc1cccc(N(C)C(=N)Nc2cccc3ccccc23)c1 [Compd. No. 58 (Table I)]			37.5	2540	
CCc1cccc(NC(=N)Nc2cc(CC)ccc2F)c1 [Compd. No. 21 (Table I), N-(3-Ethylphenyl)-N'-(2-fluoro-5-ethylphenyl)guanidine hydrochloride]			64.8	7.4	
CSc1cccc(N(C)C(=N)Nc2cc(Cl)ccc2Cl)c1 [Compd. No. 62 (Table I), N-(3-Methylthiophenyl)-N-methyl-N'-(2,5-dichlorophenyl)guanidine hydrochloride]			59.3	130	
CCc1cccc(N(C)C(=N)Nc2cc(SC)ccc2Br)c1 [Compd. No. 59 (Table I)]			3.19	240	
